Holding throughout (test): relative viability (nuclei count vs DMSO), 5 days (fraction); higher = more cells survive
Compound in the test “AZD5582 + Linsitinib”: C[C@@H](C(=O)N[C@@H](C1CCCCC1)C(=O)N2CCC[C@H]2C(=O)N[C@@H]3[C@@H](CC4=CC=CC=C34)OCC#CC#CCO[C@@H]5CC6=CC=CC=C6[C@@H]5NC(=O)[C@@H]7CCCN7C(=O)[C@H](C8CCCCC8)NC(=O)[C@H](C)NC)NC [AZD5582] + C[C@]1(O)C[C@@H](c2nc(-c3ccc4ccc(-c5ccccc5)nc4c3)c3c(N)nccn32)C1 [Linsitinib] (partner 1 µM)
The essentials: (§1)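 Relative viability is defined as nuclei in treated wells over nuclei in vehicle wells. Duplicate plates were run and medians reported. Lung cancer cell lines in 1536-well plates were dosed by pin tool one day after seeding, with one drug or with a fixed anchor-drug dose plus five library-drug doses (not always all listed) in √10 steps, and nuclei were counted after 5 days.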

Compound in the test “AZD5582 + Dasatinib”: C[C@@H](C(=O)N[C@@H](C1CCCCC1)C(=O)N2CCC[C@H]2C(=O)N[C@@H]3[C@@H](CC4=CC=CC=C34)OCC#CC#CCO[C@@H]5CC6=CC=CC=C6[C@@H]5NC(=O)[C@@H]7CCCN7C(=O)[C@H](C8CCCCC8)NC(=O)[C@H](C)NC)NC [AZD5582] + Cc1nc(Nc2ncc(C(=O)Nc3c(C)cccc3Cl)s2)cc(N2CCN(CCO)CC2)n1 [Dasatinib] (partner 0.075 µM)
Put shortly:
as §1

Compound in the test “AZD5582 + Palbociclib”: C[C@@H](C(=O)N[C@@H](C1CCCCC1)C(=O)N2CCC[C@H]2C(=O)N[C@@H]3[C@@H](CC4=CC=CC=C34)OCC#CC#CCO[C@@H]5CC6=CC=CC=C6[C@@H]5NC(=O)[C@@H]7CCCN7C(=O)[C@H](C8CCCCC8)NC(=O)[C@H](C)NC)NC [AZD5582] + CC(=O)c1c(C)c2cnc(Nc3ccc(N4CCNCC4)cn3)nc2n(C2CCCC2)c1=O [Palbociclib] (partner 0.5 µM)
The essentials: as §1

Compound in the test “AZD5582 + Trametinib”: C[C@@H](C(=O)N[C@@H](C1CCCCC1)C(=O)N2CCC[C@H]2C(=O)N[C@@H]3[C@@H](CC4=CC=CC=C34)OCC#CC#CCO[C@@H]5CC6=CC=CC=C6[C@@H]5NC(=O)[C@@H]7CCCN7C(=O)[C@H](C8CCCCC8)NC(=O)[C@H](C)NC)NC [AZD5582] + CC(=O)Nc1cccc(-n2c(=O)n(C3CC3)c(=O)c3c(Nc4ccc(I)cc4F)n(C)c(=O)c(C)c32)c1 [Trametinib] (partner 0.02 µM)
Put shortly:
as §1

Compound in the test “AZD5582 + Navitoclax”: C[C@@H](C(=O)N[C@@H](C1CCCCC1)C(=O)N2CCC[C@H]2C(=O)N[C@@H]3[C@@H](CC4=CC=CC=C34)OCC#CC#CCO[C@@H]5CC6=CC=CC=C6[C@@H]5NC(=O)[C@@H]7CCCN7C(=O)[C@H](C8CCCCC8)NC(=O)[C@H](C)NC)NC [AZD5582] + CC1(C)CCC(c2ccc(Cl)cc2)=C(CN2CCN(c3ccc(C(=O)NS(=O)(=O)c4ccc(N[C@H](CCN5CCOCC5)CSc5ccccc5)c(S(=O)(=O)C(F)(F)F)c4)cc3)CC2)C1 [Navitoclax] (partner 0.5 µM)
Put shortly: as §1

As for ABC-1, the relative viability was found to be 0.766 with AZD5582 + Linsitinib (first compound 0.001581 µM); 0.958 in the test with AZD5582 + Linsitinib (first compound 0.005 µM); 0.913 with AZD5582 + Linsitinib (first compound 0.01581 µM); 0.971 with AZD5582 + Linsitinib (first compound 0.05 µM); 0.344 with AZD5582 + Dasatinib (first compound 0.001581 µM); 0.611 in the test with AZD5582 + Dasatinib (first compound 0.005 µM). In addition, the relative viability with AZD5582 + Dasatinib (first compound 0.05 µM) was found to be 0.632; in the test with AZD5582 + Palbociclib (first compound 0.001581 µM) it was 0.658; with AZD5582 + Palbociclib (first compound 0.005 µM), 0.834; with AZD5582 + Palbociclib (first compound 0.01581 µM), 0.492; with AZD5582 + Palbociclib (first compound 0.05 µM), 0.625.

Take NCI-H1563: the relative viability with AZD5582 + Linsitinib (first compound 0.001581 µM) was 1.23; with AZD5582 + Linsitinib (first compound 0.005 µM), 1.18; with AZD5582 + Linsitinib (first compound 0.01581 µM), 1.24; with AZD5582 + Linsitinib (first compound 0.05 µM) it was 1.15; in the test with AZD5582 + Dasatinib (first compound 0.001581 µM), 0.412; in the test with AZD5582 + Dasatinib (first compound 0.005 µM), 0.456. In addition, the relative viability in the test with AZD5582 + Dasatinib (first compound 0.01581 µM) was 0.447; with AZD5582 + Dasatinib (first compound 0.05 µM), 0.461.

As for NCI-H596, the relative viability with AZD5582 + Linsitinib (first compound 0.001581 µM) was determined as 1.28; with AZD5582 + Linsitinib (first compound 0.005 µM) it was 0.503; in the test with AZD5582 + Linsitinib (first compound 0.01581 µM) it was 1.08; with AZD5582 + Linsitinib (first compound 0.05 µM) it was 0.246; with AZD5582 + Dasatinib (first compound 0.01581 µM) it was 0.617; in the test with AZD5582 + Dasatinib (first compound 0.05 µM), 0.233. For the same cell line, the relative viability worked out at 0.738 with AZD5582 + Trametinib (first compound 0.001581 µM); 0.8 with AZD5582 + Trametinib (first compound 0.01581 µM); 0.588 in the test with AZD5582 + Trametinib (first compound 0.05 µM); 0.811 with AZD5582 + Navitoclax (first compound 0.001581 µM); 0.581 with AZD5582 + Navitoclax (first compound 0.005 µM); 1.16 with AZD5582 + Navitoclax (first compound 0.01581 µM). For the same cell line, the relative viability in the test with AZD5582 + Navitoclax (first compound 0.05 µM) was 0.332.

With NCI-H522, the relative viability turned out to be 0.935 in the test with AZD5582 + Dasatinib (first compound 0.001581 µM); 0.876 in the test with AZD5582 + Dasatinib (first compound 0.005 µM); 0.846 with AZD5582 + Dasatinib (first compound 0.01581 µM); 1.45 with AZD5582 + Dasatinib (first compound 0.05 µM); 0.628 in the test with AZD5582 + Trametinib (first compound 0.001581 µM); 0.777 in the test with AZD5582 + Trametinib (first compound 0.005 µM). Also, the relative viability with AZD5582 + Trametinib (first compound 0.01581 µM) was 0.724; in the test with AZD5582 + Trametinib (first compound 0.05 µM), 0.747; in the test with AZD5582 + Palbociclib (first compound 0.001581 µM) it was 0.963; in the test with AZD5582 + Palbociclib (first compound 0.005 µM) it was 1.02; with AZD5582 + Palbociclib (first compound 0.01581 µM), 1.11; in the test with AZD5582 + Palbociclib (first compound 0.05 µM), 0.912.

As for EBC-1, the relative viability with AZD5582 + Linsitinib (first compound 0.001581 µM) amounted to 0.828; with AZD5582 + Linsitinib (first compound 0.005 µM), 0.939; in the test with AZD5582 + Linsitinib (first compound 0.01581 µM), 0.883; with AZD5582 + Linsitinib (first compound 0.05 µM), 1.03; with AZD5582 + Navitoclax (first compound 0.001581 µM) it was 0.394; with AZD5582 + Navitoclax (first compound 0.005 µM), 0.408. The relative viability with AZD5582 + Navitoclax (first compound 0.01581 µM) turned out to be 0.4; in the test with AZD5582 + Navitoclax (first compound 0.05 µM), 0.373.

Regarding ChaGo-K-1, the relative viability with AZD5582 + Dasatinib (first compound 0.001581 µM) was found to be 0.579; with AZD5582 + Dasatinib (first compound 0.005 µM), 0.669; in the test with AZD5582 + Dasatinib (first compound 0.01581 µM), 0.596; in the test with AZD5582 + Dasatinib (first compound 0.05 µM), 0.488; with AZD5582 + Trametinib (first compound 0.001581 µM), 0.897; with AZD5582 + Trametinib (first compound 0.005 µM), 0.883. The relative viability with AZD5582 + Trametinib (first compound 0.01581 µM) amounted to 0.886; with AZD5582 + Trametinib (first compound 0.05 µM) it was 0.936; with AZD5582 + Palbociclib (first compound 0.001581 µM), 0.882; with AZD5582 + Palbociclib (first compound 0.005 µM), 0.943; with AZD5582 + Palbociclib (first compound 0.01581 µM), 0.921; with AZD5582 + Palbociclib (first compound 0.05 µM), 1.01. Further, the relative viability came to 0.977 with AZD5582 + Navitoclax (first compound 0.001581 µM), 1.18 with AZD5582 + Navitoclax (first compound 0.005 µM), 0.797 with AZD5582 + Navitoclax (first compound 0.01581 µM) and 0.994 with AZD5582 + Navitoclax (first compound 0.05 µM).
